Earlier results in US20240327780A1 (priority 2023, published 2024).
Where a name gives a salt, the structure may show the parent alone.

Test system: SARS-CoV-2 nsp14

Row | Compound | inhibition of nsp14 in fluorescence-based screen
1 | Fc1ccc(C(c2ccc(F)cc2)N2CCN(C/C=C/c3ccccc3)CC2)cc1 [flunarizine dihydrochloride] | selective inhibitors
2 | Clc1ccc2nsnc2c1NC1=NCCN1 [tizanidine hydrochloride] | selective inhibitors
